From US11130778B2, “CD73 inhibitors” (ORIC Pharmaceuticals, Inc., priority 2019, dated 2021)

These compounds were tested against T1, CD73 (Homo sapiens, UniProt P21589) (assay: Biochemical assay of CD73 inhibition (Malachite Green)). Conditions: CD73 0.3208 nM, AMP 15 μM, Tris-HCl pH 7.4, Malachite Green absorbance readout; read-out: CD73_Biochem.
T1 sequence (P21589 27-549): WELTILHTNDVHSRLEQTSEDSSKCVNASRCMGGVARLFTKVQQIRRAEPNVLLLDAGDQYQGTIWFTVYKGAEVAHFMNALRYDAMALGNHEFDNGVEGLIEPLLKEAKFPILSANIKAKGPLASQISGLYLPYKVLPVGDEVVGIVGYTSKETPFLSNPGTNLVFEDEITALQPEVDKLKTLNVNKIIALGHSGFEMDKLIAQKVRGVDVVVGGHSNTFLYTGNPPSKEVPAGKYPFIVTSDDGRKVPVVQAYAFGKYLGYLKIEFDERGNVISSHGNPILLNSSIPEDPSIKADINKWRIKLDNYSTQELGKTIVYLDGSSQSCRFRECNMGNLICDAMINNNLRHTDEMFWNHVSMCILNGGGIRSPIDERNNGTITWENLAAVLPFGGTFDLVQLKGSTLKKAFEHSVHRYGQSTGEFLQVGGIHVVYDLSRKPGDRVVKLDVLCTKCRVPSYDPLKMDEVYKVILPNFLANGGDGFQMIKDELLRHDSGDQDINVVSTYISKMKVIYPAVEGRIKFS
Method: Example A1: Biochemical Assay
Assay Reaction Conditions
• Assay Volume: 70 μl • Reaction Volume: 50 μl • CD73: 0.3208 nM • AMP:15 μM • Assay Buffer: 2 5 mM Tris-HCL, pH 7.4, 0.01% Brij-35, 0.01% BSA, 5 mM MgCl2 Assay Procedure:
Made dose titration of testing compounds in assay buffer, 10 points 1/2 log titrations in duplicates starting at 100 μM.
Added 25 µl of CD73 to each well for a final concentration of […].
Incubated at RT for 15 min.
Added 25 µl of AMP to each well for a final concentration of 15 μM.
Incubated at RT for 10 min.
Added […] of Malachite Green Reagent A, incubate at RT for 10 min.
Added […] of Malachite Green Reagent B, incubate at RT for 45 min.
Read the Absorbance on Envision plate reader using excitation filter: Cy5 […].
The ability of the compounds disclosed herein to inhibit CD73 activity was quantified and the respective IC50 values were determined. Table 2 provides the biochemical IC50 values of compounds disclosed herein.

**Q.** How did the IC50 turn out when `CC(C)CNc1nc(Cl)nc2c1cnn2[C@@H]1O[C@H](CO[C@](CO)(Cc2nn[nH]n2)P(=O)(O)O)[C@@H](O)[C@H]1O` [Example 33, ((R)-2-(((2R,3S,4R,5R)-5-(6-chloro-4-(isobutylamino)-1H-pyrazolo[3,4-d]pyrimidin-1-yl)-3,4-dihydroxytetrahydrofuran-2-yl)methoxy)-1-hydroxy-3-(2H-tetrazol-5-yl)propan-2-yl)phosphonic acid] was run?
**A.** ≤ 10 nM

**Q.** For `COC[C@@](Cc1nn[nH]n1)(OC[C@H]1O[C@@H](n2ncc3c(NCC(C)C)nc(Cl)nc32)[C@H](O)[C@@H]1O)P(=O)(O)O` [Example 34, ((S)-2-(((2R,3S,4R,5R)-5-(6-chloro-4-(isobutylamino)-1H-pyrazolo[3,4-d]pyrimidin-1-yl)-3,4-dihydroxytetrahydrofuran-2-yl)methoxy)-1-methoxy-3-(2H-tetrazol-5-yl)propan-2-yl)phosphonic acid], which IC50 is on record?
**A.** 10 to 100 nM

**Q.** `COC[C@](Cc1nn[nH]n1)(OC[C@H]1O[C@@H](n2ncc3c(NCC(C)C)nc(Cl)nc32)[C@H](O)[C@@H]1O)P(=O)(O)O` [Example 35, ((R)-2-(((2R,3S,4R,5R)-5-(6-chloro-4-(isobutylamino)-1H-pyrazolo[3,4-d]pyrimidin-1-yl)-3,4-dihydroxytetrahydrofuran-2-yl)methoxy)-1-methoxy-3-(2H-tetrazol-5-yl)propan-2-yl)phosphonic acid] was tested. Which IC50 did it give?
**A.** ≤ 10 nM

**Q.** `COC[C@](OC[C@H]1O[C@@H](n2ncc3c(NC4CCCC4)nc(Cl)nc32)[C@H](O)[C@@H]1O)(C(=O)NO)P(=O)(O)O` [Example 36, ((R)-2-(((2R,3S,4R,5R)-5-(6-chloro-4-(cyclopentylamino)-1H-pyrazolo[3,4-d]pyrimidin-1-yl)-3,4-dihydroxytetrahydrofuran-2-yl)methoxy)-1-(hydroxyamino)-3-methoxy-1-oxopropan-2-yl)phosphonic acid] was tested. Which IC50 did it give?
**A.** ≤ 10 nM

**Q.** With `COC[C@@](OC[C@H]1O[C@@H](n2ncc3c(NC4CCCC4)nc(Cl)nc32)[C@H](O)[C@@H]1O)(C(=O)NO)P(=O)(O)O` [Example 37, ((S)-2-(((2R,3S,4R,5R)-5-(6-chloro-4-(cyclopentylamino)-1H-pyrazolo[3,4-d]pyrimidin-1-yl)-3,4-dihydroxytetrahydrofuran-2-yl)methoxy)-1-(hydroxyamino)-3-methoxy-1-oxopropan-2-yl)phosphonic acid] as the compound, how does the IC50 read?
**A.** ≤ 10 nM

**Q.** With `COC[C@](COCc1nn[nH]n1)(OC[C@H]1O[C@@H](n2ncc3c(NC4CCCC4)nc(Cl)nc32)[C@H](O)[C@@H]1O)P(=O)(O)O` [Example 38, ((S)-1-((2H-tetrazol-5-yl)methoxy)-2-(((2R,3S,4R,5R)-5-(6-chloro-4-(cyclopentamino)-1H-pyrazolo[3,4-d]pyrimidin-1-yl)-3,4-dihydroxytetrahydrofuran-2-yl)methoxy)-3-methoxypropan-2-yl)phosphonic acid] as the compound, how does the IC50 read?
**A.** ≤ 10 nM

**Q.** For `COC[C@@](COCc1nn[nH]n1)(OC[C@H]1O[C@@H](n2ncc3c(NC4CCCC4)nc(Cl)nc32)[C@H](O)[C@@H]1O)P(=O)(O)O` [Example 39, ((R)-1-((2H-tetrazol-5-yl)methoxy)-2-(((2R,3S,4R,5R)-5-(6-chloro-4-(cyclopentylamino)-1H-pyrazolo[3,4-d]pyrimidin-1-yl)-3,4-dihydroxytetrahydrofuran-2-yl)methoxy)-3-methoxypropan-2-yl)phosphonic acid], which IC50 is on record?
**A.** ≤ 10 nM

**Q.** `COCCOCC(COCc1nnn[nH]1)(OC[C@H]1O[C@@H](n2ncc3c(NC4CCCC4)nc(Cl)nc32)[C@H](O)[C@@H]1O)P(=O)(O)O` (stereo partly drawn) [Example 40, (1-((1H-tetrazol-5-yl)methoxy)-2-(((2R,3S,4R,5R)-5-(6-chloro-4-(cyclopentylamino)-1H-pyrazolo[3,4-d]pyrimidin-1-yl)-3,4-dihydroxytetrahydrofuran-2-yl)methoxy)-3-(2-methoxyethoxy)propan-2-yl)phosphonic acid] was tested. Which IC50 did it give?
**A.** ≤ 10 nM

**Q.** `CC(Cc1nn[nH]n1)(OC[C@H]1O[C@@H](n2ncc3c(NC4CCCC4)nc(Cl)nc32)[C@H](O)[C@@H]1O)P(=O)(O)O` (stereo partly drawn) [Example 43, (2-(((2R,3S,4R,5R)-5-(6-chloro-4-(cyclopentylamino)-1H-pyrazolo[3,4-d]pyrimidin-1-yl)-3,4-dihydroxytetrahydrofuran-2-yl)methoxy)-1-(2H-tetrazol-5-yl)propan-2-yl)phosphonic acid] was tested. Which IC50 did it give?
**A.** ≤ 10 nM

**Q.** For `COCC(OC[C@H]1O[C@@H](n2ncc3c(NC4CCCC4)nc(Cl)nc32)[C@H](O)[C@@H]1O)(C(=O)O)P(=O)(O)O` (stereo partly drawn) [Example 46, 2-(((2R,3S,4R,5R)-5-(6-chloro-4-(cyclopentylamino)-1H-pyrazolo[3,4-d]pyrimidin-1-yl)-3,4-dihydroxytetrahydrofuran-2-yl)methoxy)-3-methoxy-2-phosphonopropanoic acid], which IC50 is on record?
**A.** ≤ 10 nM

**Q.** `O=P(O)(O)[C@](CO)(Cc1nn[nH]n1)OC[C@H]1O[C@@H](n2ncc3c(N[C@@H]4CCc5ccccc54)nc(Cl)nc32)[C@H](O)[C@@H]1O` [Example 47] was tested. Which IC50 did it give?
**A.** 10 to 100 nM

**Q.** For `O=P(O)(O)[C@@](CO)(Cc1nn[nH]n1)OC[C@H]1O[C@@H](n2ncc3c(N[C@@H]4CCc5ccccc54)nc(Cl)nc32)[C@H](O)[C@@H]1O` [Example 48, ((R)-2-(((2R,3S,4R,5R)-5-(6-chloro-4-(((R)-2,3-dihydro-1H-inden-1-yl)amino)-1H-pyrazolo[3,4-d]pyrimidin-1-yl)-3,4-dihydroxytetrahydrofuran-2-yl)methoxy)-1-hydroxy-3-(2H-tetrazol-5-yl)propan-2-yl)phosphonic acid], which IC50 is on record?
**A.** ≤ 10 nM

**Q.** Which IC50 does the source give for `O=P(O)(O)C(CO)(OC[C@H]1O[C@@H](n2ncc3c(NC4CCCC4)nc(Cl)nc32)[C@H](O)[C@@H]1O)c1nn[nH]n1` (stereo partly drawn) [Example 49, (1-(((2R,3S,4R,5R)-5-(6-chloro-4-(cyclopentylamino)-1H-pyrazolo[3,4-d]pyrimidin-1-yl)-3,4-dihydroxytetrahydrofuran-2-yl)methoxy)-2-hydroxy-1-(2H-tetrazol-5-yl)ethyl)phosphonic acid] here?
**A.** 10 to 100 nM

**Q.** `O=P(O)(O)[C@@](CO)(Cc1nn[nH]n1)OC[C@H]1O[C@@H](n2ncc3c(NC4CCCC4)nc(C#CC4CC4)nc32)[C@H](O)[C@@H]1O` [Example 50, ((R)-2-(((2R,3S,4R,5R)-5-(4-(cyclopentylamino)-6-(cyclopropylethynyl)-1H-pyrazolo[3,4-d]pyrimidin-1-yl)-3,4-dihydroxytetrahydrofuran-2-yl)methoxy)-1-hydroxy-3-(2H-tetrazol-5-yl)propan-2-yl)phosphonic acid] was tested. Which IC50 did it give?
**A.** ≤ 10 nM

**Q.** How did the IC50 turn out when `O=c1[nH]c(COCC(CO)(OC[C@H]2O[C@@H](n3ncc4c(NC5CCCC5)nc(Cl)nc43)[C@H](O)[C@@H]2O)P(=O)(O)O)no1` (stereo partly drawn) [Example 51, (2-(((2R,3S,4R,5R)-5-(6-chloro-4-(cyclopentylamino)-1H-pyrazolo[3,4-d]pyrimidin-1-yl)-3,4-dihydroxytetrahydrofuran-2-yl)methoxy)-1-hydroxy-3-((5-oxo-4,5-dihydro-1,2,4-oxadiazol-3-yl)methoxy)propan-2-yl)phosphonic acid] was run?
**A.** ≤ 10 nM

**Q.** `O=P(O)(O)[C@](CO)(COCc1nn[nH]n1)OC[C@H]1O[C@@H](n2ncc3c(NC4CCC4)nc(Cl)nc32)[C@H](O)[C@@H]1O` [Example 52, ((R)-1-((1H-tetrazol-5-yl)methoxy)-2-(((2R,3S,4R,5R)-5-(6-chloro-4-(cyclobutylamino)-1H-pyrazolo[3,4-d]pyrimidin-1-yl)-3,4-dihydroxytetrahydrofuran-2-yl)methoxy)-3-hydroxypropan-2-yl)phosphonic acid] was tested. Which IC50 did it give?
**A.** ≤ 10 nM

**Q.** Which IC50 does the source give for `COCC(COCc1nn[nH]n1)(OC[C@H]1O[C@@H](n2ncc3c(NC4CCCC4)nc(C#CC4CC4)nc32)[C@H](O)[C@@H]1O)P(=O)(O)O` (stereo partly drawn) [Example 53, (1-((2H-tetrazol-5-yl)methoxy)-2-(((2R,3S,4R,5R)-5-(4-(cyclopentylamino)-6-(cyclopropylethynyl)-1H-pyrazolo[3,4-d]pyrimidin-1-yl)-3,4-dihydroxytetrahydrofuran-2-yl)methoxy)-3-methoxypropan-2-yl)phosphonic acid] here?
**A.** ≤ 10 nM

**Q.** `O=P(O)(O)[C@@](CO)(COCc1nn[nH]n1)OC[C@H]1O[C@@H](n2ncc3c(NCC4CC4)nc(Cl)nc32)[C@H](O)[C@@H]1O` [Example 54, ((S)-1-((2H-tetrazol-5-yl)methoxy)-2-(((2R,3S,4R,5R)-5-(6-chloro-4-((cyclopropylmethyl)amino)-1H-pyrazolo[3,4-d]pyrimidin-1-yl)-3,4-dihydroxytetrahydrofuran-2-yl)methoxy)-3-hydroxypropan-2-yl)phosphonic acid] was tested. Which IC50 did it give?
**A.** ≤ 10 nM
